{
  "source": "patent US20260034091A1",
  "about": "“Compositions and Methods for Treating Metabolic Disorders” (The Regents of the University of California, priority 2022, published 2026)",
  "tested_on": "CDAHFD-induced late stage NAFLD/NASH in mice",
  "assay": "Benchmark study against Firsocostat and Fenofibrate in CDAHFD-induced late stage NAFLD/NASH",
  "type": "in vivo, C57BL/6J male mice",
  "conditions": "QD oral gavage four weeks; TOFA 250 mg/kg, Firsocostat 5 mg/kg, Fenofibrate 50 mg/kg",
  "method": "Six-week-old C57BL/6J male mice were fed with a L-amino acid diet with 60 kcal % fat with 0.1% methionine and no added choline (CDAHFD; Research Diets A06071302i) for eight weeks. Mice were randomly assigned to treatment groups of either a vehicle (control), 250 mg/kg of TOFA, 5 mg/kg of Firsocostat (Gilead Sciences), 50 mg/kg of Fenofibrate, or a combined dose of 5 mg/kg Firsocostat and 50 mg/kg Fenofibrate. All treatments were delivered QD by oral gavage for an additional four weeks. Mice weights and food intake were monitored during the treatment time course. Upon study termination at 12 weeks, liver and serum samples were collected. Serum liver damage biomarkers, ALT and AST, were measured by commercially available kits (abcam 105134 and abcam 105135, respectively). Hepatic and serum triglyceride levels were measured from a commercially available kit (abcam65336). Total RNA was extracted from liver tissues (Qiagen RNeasy kit 74106), and cDNA was prepared (BioRAD iScript™ Reverse Transcription) according to manufacturer's protocols. Quantitative PCR (qPCR) was performed with fast SYBR Green Mix (ThermoFisher A25742) on the QuantStudio6 System (Applied Biosciences). Protein expression levels of liver samples were measured by western blot using antibodies against VLDLR (AF2258, 1:2000), CPT1A (CST12252, 1:1000) and Histone H3 (CST9715, 1:1000). Membranes were developed using a HRP secondary antibody (1:5000) and visualized using an enhanced chemiluminescent HRP substrate (Thermo34577). Additional liver samples were fixed in 4% paraformaldehyde and embedded in paraffin blocks for sectioning and subsequently stained with hematoxylin and eosin (H&E).",
  "data": [
    {"smiles": "COc1ccccc1[C@H](Cn1c(=O)n(C(C)(C)C(=O)O)c(=O)c2c(C)c(-c3ncco3)sc21)OC1CCOCC1", "note": "[Firsocostat, reference compound]", "values": [
      {"measurement": "serum ALT", "value": "decreases"},
      {"measurement": "serum AST", "value": "decreases"}
    ]}
  ]
}
